The results in this text go back to PubChem BioAssay AID504455 (Sanford-Burnham Center for Chemical Genomics, 2011).

Active and inactive are the calls of the source.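 The calls were made as follows: active = compounds whose mean IC50 is below 20 µM; inactive = the rest.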

The assay deals with Apelin receptor (Homo sapiens) (UniProt P35414). The experiment in a line: blockers of apelin-13-driven APJ signaling – cell-based, CHO-K1 AGTRL-1, PathHunter luminescence, set 6, SAR follow-up (AID 504455). The following applies: CHO-K1 APJ beta-arrestin PathHunter, apelin-13 antagonism.
Sequence of Apelin receptor (Homo sapiens) (P35414 whole entry, looked up): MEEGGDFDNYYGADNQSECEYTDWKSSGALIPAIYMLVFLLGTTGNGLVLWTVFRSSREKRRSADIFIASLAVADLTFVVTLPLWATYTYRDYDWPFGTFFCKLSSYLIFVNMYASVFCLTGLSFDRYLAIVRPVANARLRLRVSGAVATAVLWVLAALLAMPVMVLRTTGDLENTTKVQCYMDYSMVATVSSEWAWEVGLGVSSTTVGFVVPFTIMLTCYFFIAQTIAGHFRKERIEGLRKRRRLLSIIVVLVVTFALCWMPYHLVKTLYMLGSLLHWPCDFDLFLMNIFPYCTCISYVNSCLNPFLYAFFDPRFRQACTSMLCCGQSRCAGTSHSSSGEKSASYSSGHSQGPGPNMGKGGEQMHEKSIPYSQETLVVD
Take `Cc1ccc(C(=O)Oc2coc(CSc3ncccn3)cc2=O)cc1[N+](=O)[O-]`: the 50% inhibitory concentration (IC50) was 10.9 µM.
For the compound `Cc1ccnc(SCc2cc(=O)c(OC(=O)c3ccccc3)co2)n1`, the IC50 is > 79 µM (inactive).
The figure for `Cc1ccnc(SCc2cc(=O)c(OC(=O)c3ccc(C#N)cc3)co2)n1` is 11.5 µM; for `Cc1ccnc(SCc2cc(=O)c(OC(=O)c3ccc([N+](=O)[O-])cc3)co2)n1` it is 3.11 µM.
Take `N#Cc1ccc(C(=O)Oc2coc(CSc3ncccn3)cc2=O)cc1`: the IC50 was 9.77 µM.
